The values that follow come from paper PMC12382614, “(Oxidopyridyl)Porphyrins of Different Lipophilicity: Photophysical Properties, ROS Production and Phototoxicity on Melanoma Cells Under CoCl2-Induced Hypoxia” (Antioxidants, 2025).

Molecules are shown by their SMILES. Like-named read-outs stand apart in the source and are kept apart here. Bounds are passed on as bounds.

In one data set the test system is A375. Put plainly: Photocytotoxicity, MTT assay. It counts as cell-based, human. Conditions: red light 643 nm 30 min; for IC50: 6 h incubation; for SI (IC50 (HDF) / IC50 (melanoma cells)) A375 100 µM CoCl2: CoCl2-induced hypoxia; for SI (IC50 (HDF) / IC50 (melanoma cells)) A375 No CoCl2: normoxia. The protocol:
(§1) For (photo)cytotoxicity assays, stock solutions of porphyrins were prepared in DMSO and dissolved in DMEM to the final concentrations. The porphyrin incubation time was 6h. Irradiation of the cells was with red light (λ = 643 nm) for 30 min (light dose, 3.6 J/cm^2). Nonirradiated cells were used to test the dark toxicity. All measurements were performed in three individual experiments, and the results are shown as the proliferation (%) of the cells and were calculated as IC50 values.
(§2) The cytotoxicity of (oxidopyridyl)porphyrins was assessed by an MTT assay on the HDF, MeWo and A375 cell lines after 6 h of incubation with porphyrins, without irradiation, or after 30 min of irradiation with red light (λ = 643 nm), and under conditions of normoxia or hypoxia. To induce hypoxia, 100 µM of CoCl2 was added at least two hours before the porphyrins. […] Oxygen is also one of the substrates for the activity of prolyl hydroxylases; therefore, in both cases, the result is the blockage of hydroxylation of HIF-1α and, consequently, its increase and stabilisation, which, in the case of CoCl2-induced hypoxia, can be maintained for several hours.
For orientation: Tetrazolium assays rely on reduction of a dye to a coloured formazan, in cell work by metabolically active cells.

Another data set relates to HDF. Put plainly: Photocytotoxicity, MTT assay. The format is cell-based, human. Conditions: 6 h incubation, red light 643 nm 30 min. The protocol:
as §1, §2

A further data set deals with MeWo. Put plainly: Photocytotoxicity, MTT assay. The format is cell-based, human. Conditions: red light 643 nm 30 min; for IC50: 6 h incubation; for SI (IC50 (HDF) / IC50 (melanoma cells)) MeWo 100 µM CoCl2: CoCl2-induced hypoxia; for SI (IC50 (HDF) / IC50 (melanoma cells)) MeWo No CoCl2: normoxia. The protocol: as §1, §2
Data set [1] has as its system HDF, MeWo and A375 cell lines. As to the kind of experiment: (Photo)cytotoxicity MTT assay, statements made for all cell lines. The format is cell-based, human. Conditions: irradiation 643 nm. The method, then: as §1, §2
Data set [2] is described as follows: UV-Vis absorption spectra in MeOH. It counts as physicochemical. The method, then: (§3) The absorption spectra of (oxidopyridyl)porphyrins were recorded in HPLC grade MeOH on a Cary UV 60 (Agilent Technologies, Santa Clara, CA, USA), in a wavelength range of 300–700 nm. The fluorescence spectra in HPLC grade MeOH were recorded on a Cary Eclipse (Agilent Technologies) in a wavelength range of 500–800 nm after excitation at the Soret band wavelength (λ ~ 420 nm). The slits of the spectrometer were set to a bandpass of 5 nm for the excitation and 5 nm for the emission. To calculate the fluorescence quantum yields, the measurements were conducted on an FS5 Edinburgh Instruments spectrometer. Prior to taking the measurements, the solutions were purged with high-purity N2 for at least 15 min. The absorbance of the solutions was set to A < 0.1 at 405 nm and 550 nm, which settings were used for the excitation process. Emission was recorded from 550 to 800 nm, with slits set to the bandpass corresponding to 2 nm for the excitation, and 3 nm for the emission. Fluorescence quantum yield (ΦFL) was calculated in comparison to the tetraphenylporphyrin (TPP; ΦFL = 0.11 [23]) as a standard, according to Equation (S1) and following an equation previously described elsewhere.

Data set [3] in a line: Fluorescence spectra and fluorescence quantum yield in MeOH. Conditions: excitation at Soret band. The format is physicochemical. The protocol:
as §3

Setting [4] is: 3.6 J/cm^2, 100 μM CoCl2 at least 2 h before porphyrin, read-out: IC50 A375 CoCl2.
[5] abbreviates: 3.6 J/cm^2, normoxia, read-out: IC50 A375 No CoCl2.
Where [6] appears, read: 3.6 J/cm^2, 100 μM CoCl2 at least 2 h before porphyrin, read-out: IC50 HDF CoCl2.
The mark [7] stands for this setting: 3.6 J/cm^2, normoxia, read-out: IC50 HDF No CoCl2.
Setting [8] is: 3.6 J/cm^2, 100 μM CoCl2 at least 2 h before porphyrin, read-out: IC50 MeWo CoCl2.
Setting [9] is: 3.6 J/cm^2, normoxia, read-out: IC50 MeWo No CoCl2.
The mark [10] stands for this setting: Homo sapiens, A-375, light or radiation study, 3.6 J/cm^2, 100 μM CoCl2 at least 2 h before porphyrin, read-out: IC50 A375 CoCl2.
[11] abbreviates: Homo sapiens, A-375, light or radiation study, 3.6 J/cm^2, normoxia, read-out: IC50 A375 No CoCl2.
Where [12] appears, read: Homo sapiens, HDF, light or radiation study, 3.6 J/cm^2, 100 μM CoCl2 at least 2 h before porphyrin, read-out: IC50 HDF CoCl2.
The mark [13] stands for this setting: Homo sapiens, HDF, light or radiation study, 3.6 J/cm^2, normoxia, read-out: IC50 HDF No CoCl2.
The mark [14] stands for this setting: Homo sapiens, MeWo, light or radiation study, 3.6 J/cm^2, 100 μM CoCl2 at least 2 h before porphyrin, read-out: IC50 MeWo CoCl2.
Setting [15] is: Homo sapiens, MeWo, light or radiation study, 3.6 J/cm^2, normoxia, read-out: IC50 MeWo No CoCl2.

For the compound `CCCCCCCCCC(=O)Nc1ccc(-c2c3nc(c(-c4ccc[n+](C)c4)c4ccc([nH]4)c(-c4ccc[n+](C)c4)c4nc(c(-c5ccc[n+](C)c5)c5ccc2[nH]5)C=C4)C=C3)cc1` [TMPyP3-C9H19], the half-maximal inhibitory concentration (IC50) (in general, the concentration that inhibits the measured activity by half) with A375 (setting [4]) stood at 990 ± 130 nM; in the data set on A375 (setting [5]) it was 670 ± 30 nM; in the data set with HDF (setting [6]) it was 8870 ± 20 nM; in the data set on HDF (setting [7]) it was 7090 ± 660 nM; in the data set on MeWo (setting [8]), 6810 ± 1360 nM; with MeWo (setting [9]), 3520 ± 650 nM. In the data set with A375, the “SI (IC50 (HDF) / IC50 (melanoma cells)) A375 100 µM CoCl2” value amounted to 9.0. For the same compound, the “SI (IC50 (HDF) / IC50 (melanoma cells)) A375 No CoCl2” value in the data set with A375 is listed as 10.6. Also, the “SI (IC50 (HDF) / IC50 (melanoma cells)) MeWo 100 µM CoCl2” value with MeWo was determined as 1.3. Besides, the “SI (IC50 (HDF) / IC50 (melanoma cells)) MeWo No CoCl2” value with MeWo worked out at 2.0.

For `CCCCCCCCCCCCCC(=O)Nc1ccc(-c2c3nc(c(-c4ccc[n+](C)c4)c4ccc([nH]4)c(-c4ccc[n+](C)c4)c4nc(c(-c5ccc[n+](C)c5)c5ccc2[nH]5)C=C4)C=C3)cc1` [TMPyP3-C13H27], the 50% inhibitory concentration (IC50) in the data set on A375 (setting [4]) was 220 ± 80 nM; in the data set on A375 (setting [5]), 150 ± 60 nM; in the data set on HDF (setting [6]), 990 ± 50 nM; with HDF (setting [7]) it was 810 ± 50 nM; with MeWo (setting [8]), 610 ± 160 nM; in the data set on MeWo (setting [9]), 430 ± 30 nM. The IC50 in data set [1] (with or without CoCl2, read-out: IC50 in all the tested cells) is ≤ 1000 nM. Further, in the data set on A375, the “SI (IC50 (HDF) / IC50 (melanoma cells)) A375 100 µM CoCl2” value is listed as 4.5. Moreover, the “SI (IC50 (HDF) / IC50 (melanoma cells)) A375 No CoCl2” value in the data set on A375 was determined as 5.4. Also, the “SI (IC50 (HDF) / IC50 (melanoma cells)) MeWo 100 µM CoCl2” value in the data set with MeWo came to 1.6. Moreover, the “SI (IC50 (HDF) / IC50 (melanoma cells)) MeWo No CoCl2” value with MeWo came out at 1.9.

As to `CCCCCCCCCC(=O)Nc1ccc(-c2c3nc(c(-c4ccc[n+]([O-])c4)c4ccc([nH]4)c(-c4ccc[n+]([O-])c4)c4nc(c(-c5ccc[n+]([O-])c5)c5ccc2[nH]5)C=C4)C=C3)cc1` [TOPyP3-C9H19, 5-(4-Decanamidophenyl)-10,15,20-tris(1-oxido-3-pyridyl)porphyrin], in data set [2], the “ε Qx (0-0)” value turned out to be 1500 M⁻¹ cm⁻¹, the “ε Qx (1-0)” value was determined as 4900 M⁻¹ cm⁻¹, the “ε Qy (0-0)” value was determined as 5100 M⁻¹ cm⁻¹ and the “ε Qy (1-0)” value amounted to 15400 M⁻¹ cm⁻¹. Moreover, in data set [2], the “ε Soret (B)” value amounted to 296400 M⁻¹ cm⁻¹, the “λabs Qx (0-0)” value is given as 645 nm, the “λabs Qx (1-0)” value stood at 588 nm and the “λabs Qy (0-0)” value was determined as 548 nm. In data set [2], the “λabs Qy (1-0)” value turned out to be 512 nm and the “λabs Soret (B)” value is 417 nm. Further, in data set [3], the “λFL Q(0,0)” value is 648 nm and the “λFL Q(0,1)” value is on record as 713 nm. For the same compound, the IC50 in the data set with A375 (setting [10]) is 5460 ± 1480 nM. Also, the IC50 in the data set with A375 (setting [11]) worked out at 3870 ± 450 nM. In the data set with A375, the “SI (IC50 (HDF) / IC50 (melanoma cells)) A375 100 µM CoCl2” value is given as 1.4 and the “SI (IC50 (HDF) / IC50 (melanoma cells)) A375 No CoCl2” value turned out to be 0.9. The IC50 in the data set with HDF (setting [12]) is 7650 ± 60 nM. In addition, the half-inhibitory concentration (IC50) in the data set with HDF (setting [13]) came to 3490 ± 450 nM. Moreover, the IC50 with MeWo (setting [14]) came to 6280 ± 820 nM. In addition, the IC50 in the data set on MeWo (setting [15]) stood at 5460 ± 1080 nM. For the same compound, in the data set with MeWo, the “SI (IC50 (HDF) / IC50 (melanoma cells)) MeWo 100 µM CoCl2” value amounted to 1.2 and the “SI (IC50 (HDF) / IC50 (melanoma cells)) MeWo No CoCl2” value was determined as 0.6. Also, in data set [1] (1 µM, normoxia or CoCl2-induced hypoxia), the “phototoxicity / reduction of proliferation at 1 µM” value was “very low”.

Take `CCCCCCCCCCCCCC(=O)Nc1ccc(-c2c3nc(c(-c4ccc[n+]([O-])c4)c4ccc([nH]4)c(-c4ccc[n+]([O-])c4)c4nc(c(-c5ccc[n+]([O-])c5)c5ccc2[nH]5)C=C4)C=C3)cc1` [TOPyP3-C13H27, 5-(4-Tetradecanamidophenyl)-10,15,20-tris(1-oxido-3-pyridyl)porphyrin]: in data set [2], the “ε Qx (0-0)” value came to 2000 M⁻¹ cm⁻¹, the “ε Qx (1-0)” value was 6000 M⁻¹ cm⁻¹, the “ε Qy (0-0)” value is 5800 M⁻¹ cm⁻¹ and the “ε Qy (1-0)” value is 19300 M⁻¹ cm⁻¹. In data set [2], the “ε Soret (B)” value came to 364600 M⁻¹ cm⁻¹, the “λabs Qx (0-0)” value is 646 nm, the “λabs Qx (1-0)” value is 588 nm and the “λabs Qy (0-0)” value was determined as 547 nm. In data set [2], the “λabs Qy (1-0)” value was found to be 512 nm and the “λabs Soret (B)” value is listed as 417 nm. Besides, in data set [3], the “λFL Q(0,0)” value came out at 648 nm and the “λFL Q(0,1)” value came to 713 nm. Also, the IC50 in the data set on A375 (setting [10]) was determined as 860 ± 60 nM. Also, the IC50 in the data set on A375 (setting [11]) was determined as 780 ± 170 nM. In the data set with A375, the “SI (IC50 (HDF) / IC50 (melanoma cells)) A375 100 µM CoCl2” value is on record as 3.0 and the “SI (IC50 (HDF) / IC50 (melanoma cells)) A375 No CoCl2” value turned out to be 1.1. Further, in the data set on HDF (setting [12]), the IC50 stood at 2620 ± 190 nM. Besides, in the data set with HDF (setting [13]), the concentration for half-maximal inhibition (IC50) worked out at 860 ± 40 nM. The IC50 in the data set with MeWo (setting [14]) amounted to 1790 ± 370 nM. For the same compound, the IC50 with MeWo (setting [15]) came to 1040 ± 90 nM. In the data set with MeWo, the “SI (IC50 (HDF) / IC50 (melanoma cells)) MeWo 100 µM CoCl2” value is on record as 1.5 and the “SI (IC50 (HDF) / IC50 (melanoma cells)) MeWo No CoCl2” value came to 0.8.
